Experimental data from patent US6914045B2, “Glycopeptide antibiotics” (Wyeth Holdings Corporation, priority 2001, dated 2005).
≈ marks a conversion by molar mass, not a printed value.

Experiments:
Test in all cases: in vitro antibacterial evaluation, MIC by broth dilution
Assay type in all cases: cell-based
[1] = system: Enterococcus sp.; conditions: broth dilution, 18 hours at 35° C.
Experimental: (§1) Methods for in vitro Antibacterial Evaluation (Table 1)
(§2) The minimum inhibitory concentration (MIC), the lowest concentration of the antibiotic which inhibits growth of the test organism, is determined by the broth dilution method using Muller-Hinton II […] (Baltimore Biological Laboratories) following the recommendations of the National Committee for Clinical Laboratory Standards [Methods for dilution antimicrobial susceptibility tests for bacteria that grow aerobically, approved standard M7-A2, National Committee for Clinical Laboratory Standards, Villanova, Pa.].
(§3) An inoculum level of 5×10^5 CFU/mL, and a range of antibiotic concentrations (64-0.06 μg/mL) is used. […] The test organisms include a spectrum of Gram-positive bacteria comprised of Staphylococcus sp., Streptococcus sp. and Enterococcus sp. These organisms include recent clinical isolates that are resistant to methicillin, penicillin and/or vancomycin.

[2] = system: Staphylococcus sp.; conditions: broth dilution, 18 hours at 35° C.
Experimental: as §1, §2, §3

[3] = system: Streptococcus sp.; conditions: broth dilution, 18 hours at 35° C.
Experimental: as §1, §2, §3

[4] = system: Escherichia coli; conditions: 18 hours at 35° C.

MIC Enterococcus avium (GC 4558) [1]: 8 µg/mL (≈ 5.05 µM)
MIC Enterococcus faecalis (ATCC 29212) [1]: 32 µg/mL (≈ 20.2 µM)
MIC Enterococcus faecalis (GC 2242) [1]: 16 µg/mL (≈ 10.1 µM)
MIC Enterococcus faecalis (GC 2691) [1]: 32 µg/mL (≈ 20.2 µM)
MIC Enterococcus faecalis (GC 3059) [1]: 32 µg/mL (≈ 20.2 µM)
MIC Enterococcus faecalis (GC 4552) [1]: 32 µg/mL (≈ 20.2 µM)
MIC Enterococcus faecalis (GC 4553) [1]: 16 µg/mL (≈ 10.1 µM)
MIC Enterococcus faecalis (GC 4554) [1]: 32 µg/mL (≈ 20.2 µM)
MIC Enterococcus faecalis (GC 6189) [1]: 32 µg/mL (≈ 20.2 µM)
MIC Enterococcus faecium (GC 2243) [1]: 16 µg/mL (≈ 10.1 µM)
MIC Enterococcus faecium (GC 4556) [1]: 32 µg/mL (≈ 20.2 µM)
MIC Enterococcus faecium (GC 4557) [1]: 2 µg/mL (≈ 1.26 µM)
MIC Enterococcus faecalis (ATCC 29212) ([1]; inoculum 5×10^5 CFU/mL, strain ATCC 29212): 32 µg/mL (≈ 20.2 µM)
MIC Enterococcus faecalis (GC 2242) ([1]; inoculum 5×10^5 CFU/mL, strain GC 2242): 16 µg/mL (≈ 10.1 µM)
MIC Enterococcus faecium (GC 2243) ([1]; inoculum 5×10^5 CFU/mL, strain GC 2243): 16 µg/mL (≈ 10.1 µM)
MIC Enterococcus faecalis (GC 2691) ([1]; inoculum 5×10^5 CFU/mL, strain GC 2691): 32 µg/mL (≈ 20.2 µM)
MIC Enterococcus faecalis (GC 3059) ([1]; inoculum 5×10^5 CFU/mL, strain GC 3059): 32 µg/mL (≈ 20.2 µM)
MIC Enterococcus faecalis (GC 4552) ([1]; inoculum 5×10^5 CFU/mL, strain GC 4552): 32 µg/mL (≈ 20.2 µM)
MIC Enterococcus faecalis (GC 4553) ([1]; inoculum 5×10^5 CFU/mL, strain GC 4553): 16 µg/mL (≈ 10.1 µM)
MIC Enterococcus faecalis (GC 4554) ([1]; inoculum 5×10^5 CFU/mL, strain GC 4554): 32 µg/mL (≈ 20.2 µM)
MIC Enterococcus faecium (GC 4556) ([1]; inoculum 5×10^5 CFU/mL, strain GC 4556): 32 µg/mL (≈ 20.2 µM)
MIC Enterococcus faecium (GC 4557) ([1]; inoculum 5×10^5 CFU/mL, strain GC 4557): 2 µg/mL (≈ 1.26 µM)
MIC Enterococcus avium (GC 4558) ([1]; inoculum 5×10^5 CFU/mL, strain GC 4558): 8 µg/mL (≈ 5.05 µM)
MIC Enterococcus faecalis (GC 6189) ([1]; inoculum 5×10^5 CFU/mL, strain GC 6189): 32 µg/mL (≈ 20.2 µM)
MIC Coagulase Negative Staphylococcus (GC 4547) [2]: 8 µg/mL (≈ 5.05 µM)
MIC Coagulase Negative Staphylococcus (GC 4548) [2]: 8 µg/mL (≈ 5.05 µM)
MIC Coagulase Negative Staphylococcus (GC 4549) [2]: 16 µg/mL (≈ 10.1 µM)
MIC Coagulase Negative Staphylococcus (GC 4551) [2]: 8 µg/mL (≈ 5.05 µM)
MIC Coagulase Negative Staphylococcus (GC 6257) [2]: 2 µg/mL (≈ 1.26 µM)
MIC Staphylococcus aureus-SMITH (GC 4543) [2]: 8 µg/mL (≈ 5.05 µM)
MIC Staphylococcus aureus-SMITH (GC 4543) ([2]; strain GC 4543): 8 µg/mL (≈ 5.05 µM)
MIC Coagulase Negative Staphylococcus (GC 4547) ([2]; strain GC 4547): 8 µg/mL (≈ 5.05 µM)
MIC Coagulase Negative Staphylococcus (GC 4548) ([2]; strain GC 4548): 8 µg/mL (≈ 5.05 µM)
MIC Coagulase Negative Staphylococcus (GC 4549) ([2]; strain GC 4549): 16 µg/mL (≈ 10.1 µM)
MIC Coagulase Negative Staphylococcus (GC 4551) ([2]; strain GC 4551): 8 µg/mL (≈ 5.05 µM)
MIC Coagulase Negative Staphylococcus (GC 6257) ([2]; strain GC 6257): 2 µg/mL (≈ 1.26 µM)
MIC Staphylococcus aureus (ATCC 29213) ([2]; strain ATCC 29213): 16 µg/mL (≈ 10.1 µM)
MIC Staphylococcus aureus (GC 1131) ([2]; strain GC 1131): 16 µg/mL (≈ 10.1 µM)
MIC Staphylococcus aureus (GC 3051) ([2]; strain GC 3051): 16 µg/mL (≈ 10.1 µM)
MIC Staphylococcus aureus (GC 3053) ([2]; strain GC 3053): 16 µg/mL (≈ 10.1 µM)
MIC Staphylococcus aureus (GC 4541) ([2]; strain GC 4541): 8 µg/mL (≈ 5.05 µM)
MIC Staphylococcus aureus (GC 4542) ([2]; strain GC 4542): 16 µg/mL (≈ 10.1 µM)
MIC Staphylococcus aureus (GC 4544) ([2]; strain GC 4544): 16 µg/mL (≈ 10.1 µM)
MIC Staphylococcus aureus (GC 4545) ([2]; strain GC 4545): 16 µg/mL (≈ 10.1 µM)
MIC Streptococcus agalactiae (GC 4564) [3]: 4 µg/mL (≈ 2.52 µM)
MIC Streptococcus pneumoniae (ATCC 6301) [3]: 4 µg/mL (≈ 2.52 µM)
MIC Streptococcus pneumoniae (GC 1894) [3]: 0.5 µg/mL (≈ 0.315 µM)
MIC Streptococcus pneumoniae (GC 4565) [3]: 4 µg/mL (≈ 2.52 µM)
MIC Streptococcus pyogenes (GC 4563) [3]: 2 µg/mL (≈ 1.26 µM)
MIC Streptococcus pneumoniae (ATCC 6301) ([3]; inoculum 5×10^5 CFU/mL, strain ATCC 6301): 4 µg/mL (≈ 2.52 µM)
MIC Streptococcus pneumoniae (GC 1894) ([3]; inoculum 5×10^5 CFU/mL, strain GC 1894): 0.5 µg/mL (≈ 0.315 µM)
MIC Streptococcus pyogenes (GC 4563) ([3]; inoculum 5×10^5 CFU/mL, strain GC 4563): 2 µg/mL (≈ 1.26 µM)
MIC Streptococcus agalactiae (GC 4564) ([3]; inoculum 5×10^5 CFU/mL, strain GC 4564): 4 µg/mL (≈ 2.52 µM)
MIC Streptococcus pneumoniae (GC 4565) ([3]; inoculum 5×10^5 CFU/mL, strain GC 4565): 4 µg/mL (≈ 2.52 µM)
MIC Escherichia coli (ATCC 25922) [4]: >128 µg/mL
MIC Escherichia coli (GC 4559) [4]: 128 µg/mL (≈ 80.7 µM)
MIC Escherichia coli (GC 4560) [4]: 4 µg/mL (≈ 2.52 µM)
SMILES: CC(c1ccccc1)C1NC(=O)CNC(=O)C(CO)NC(=O)C(C(O)C2CN(Cc3ccc(C(F)(F)F)cc3)C(=N)N2C2OC(CO)C(O)C(O)C2O)NC(=O)C(C(O)C2CNC(=N)N2)NC(=O)C(Cc2ccc(OC3OC(CO)C(OC4OC5COC6(OC5C(O)C4O)C4CC5CC(C4)CC6C5)C(O)C3O)cc2)NC1=O (centres unmarked) [Example 226]
MIC Staphylococcus haemolyticus (GC 4546) [2]: 8 µg/mL (≈ 5.05 µM)
MIC Staphylococcus haemolyticus (GC 4546) ([2]; strain GC 4546): 8 µg/mL (≈ 5.05 µM)
